Consider 2 compounds from publication PMC9960274, “Peptidic Inhibitors and a Fluorescent Probe for the Selective Inhibition and Labelling of Factor XIIIa Transglutaminase” (Molecules, 2023).

In general, Km refers to the concentration of substrate that gives half-maximal velocity.

The target in test [1] is T1, Human TG2 (Homo sapiens, UniProt P21980).
T1 construct: made in house
T1 sequence (P21980 1-687): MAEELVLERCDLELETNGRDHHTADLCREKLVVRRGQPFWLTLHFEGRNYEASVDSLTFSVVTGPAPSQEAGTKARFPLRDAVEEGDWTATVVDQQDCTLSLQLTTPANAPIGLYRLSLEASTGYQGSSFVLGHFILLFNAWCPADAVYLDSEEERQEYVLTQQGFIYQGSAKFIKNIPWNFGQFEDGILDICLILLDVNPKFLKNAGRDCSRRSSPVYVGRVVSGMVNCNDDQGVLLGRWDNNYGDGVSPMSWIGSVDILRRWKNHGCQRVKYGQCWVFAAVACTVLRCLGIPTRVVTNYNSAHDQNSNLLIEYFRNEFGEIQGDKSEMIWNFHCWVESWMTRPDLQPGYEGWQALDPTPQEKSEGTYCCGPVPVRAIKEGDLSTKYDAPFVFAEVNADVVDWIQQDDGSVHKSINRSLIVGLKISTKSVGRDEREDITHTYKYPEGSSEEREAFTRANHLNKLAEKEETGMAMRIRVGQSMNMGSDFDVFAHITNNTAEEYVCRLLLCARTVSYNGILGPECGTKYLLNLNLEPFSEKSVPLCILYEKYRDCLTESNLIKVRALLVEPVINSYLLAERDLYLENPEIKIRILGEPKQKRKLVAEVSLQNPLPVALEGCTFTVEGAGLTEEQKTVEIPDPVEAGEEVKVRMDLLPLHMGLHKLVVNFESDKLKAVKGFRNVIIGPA
Also noted: method as in PMID 35158154, PMID 28858494. The conditions noted are these: read-out: KM of substrate for TG2; cited from earlier work.

Test [2] has as its target T2, Thrombin-activated human FXIIIa (Homo sapiens, UniProt P00488).
T2 construct: purchased Zedira GmbH T070
T2 sequence (P00488 39-732 limits assumed): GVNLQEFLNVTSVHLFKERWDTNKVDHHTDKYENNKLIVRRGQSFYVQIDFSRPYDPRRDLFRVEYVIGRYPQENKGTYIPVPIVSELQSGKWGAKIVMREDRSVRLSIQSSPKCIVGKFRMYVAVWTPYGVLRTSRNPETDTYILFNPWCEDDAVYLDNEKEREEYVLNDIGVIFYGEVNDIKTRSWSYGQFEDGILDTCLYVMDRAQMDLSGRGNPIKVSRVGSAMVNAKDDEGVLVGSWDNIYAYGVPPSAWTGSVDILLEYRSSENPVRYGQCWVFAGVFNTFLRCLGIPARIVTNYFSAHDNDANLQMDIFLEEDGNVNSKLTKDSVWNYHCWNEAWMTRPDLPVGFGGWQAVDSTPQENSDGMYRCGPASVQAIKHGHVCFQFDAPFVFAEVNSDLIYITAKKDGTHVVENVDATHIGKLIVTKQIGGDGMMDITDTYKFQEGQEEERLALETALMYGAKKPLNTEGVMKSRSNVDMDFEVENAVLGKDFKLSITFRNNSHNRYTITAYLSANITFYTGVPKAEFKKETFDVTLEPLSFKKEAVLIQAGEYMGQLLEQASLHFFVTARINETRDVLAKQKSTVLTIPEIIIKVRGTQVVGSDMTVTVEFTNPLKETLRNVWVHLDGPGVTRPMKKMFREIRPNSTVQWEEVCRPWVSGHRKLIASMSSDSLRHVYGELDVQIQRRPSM
Put plainly: Fluorescence-quenched A101 isopeptidase assay of FXIIIa inhibition kinetics. In kind it is biochemical. As to conditions: 0, 100, 200, 320 µM.

The structures appear in SMILES notation. Non-standard residues stand in square brackets, D forms with d. Residues, ends and D or L forms follow the SMILES beside them. ξ: configuration not given here. *: point of attachment. ONp = O=[N+]([O-])c1ccc(O*)cc1; ξE = NC(CCC(=O)O)C(=O)O; Cbz = O=C(OCc1ccccc1)*

On to `O=C(O)CNC(=O)C(CCC(=O)Oc1ccc([N+](=O)[O-])cc1)NC(=O)OCc1ccccc1` (centres unmarked) [AL5, Cbz-Glu(ɣ-p-nitrophenyl ester)Gly-OH] (Cbz-[ξE](ONp)-Gly-OH), for which the Km in test [1] is 10 µM.
As for `CN(C)c1cccc2c(S(N)(=O)=O)cccc12` [Dansyl amide], the “traces in FXIIIa A101 inhibition assay (fluorescence interference control)” value in test [2] is given as “nearly identical traces as those obtained using the dansylated inhibitor library”.
